Results as given in ChEMBL document CHEMBL6153032, “Discovery of a highly potent, N-terminal domain-targeting degrader of AR-FL/AR-V7 for the treatment of prostate cancer” (Eur J Med Chem, 2025).
Calls of active or inactive are those of the source. No cut-off for these calls is given here.

Tests used:
[1] = molecular target: T1, Protein cereblon/Androgen receptor (Homo sapiens, UniProt P10275+Q96SW2); experiment: PROTAC activity at full length Androgen receptor/CRBN in human 22Rv1 cells assessed as induction of full length Androgen receptor degradation at 5 uM incubated for 24 hrs by Western blot analysis relative to control; assay type: cell-based
Target sequence in this assay (P10275 whole entry, looked up): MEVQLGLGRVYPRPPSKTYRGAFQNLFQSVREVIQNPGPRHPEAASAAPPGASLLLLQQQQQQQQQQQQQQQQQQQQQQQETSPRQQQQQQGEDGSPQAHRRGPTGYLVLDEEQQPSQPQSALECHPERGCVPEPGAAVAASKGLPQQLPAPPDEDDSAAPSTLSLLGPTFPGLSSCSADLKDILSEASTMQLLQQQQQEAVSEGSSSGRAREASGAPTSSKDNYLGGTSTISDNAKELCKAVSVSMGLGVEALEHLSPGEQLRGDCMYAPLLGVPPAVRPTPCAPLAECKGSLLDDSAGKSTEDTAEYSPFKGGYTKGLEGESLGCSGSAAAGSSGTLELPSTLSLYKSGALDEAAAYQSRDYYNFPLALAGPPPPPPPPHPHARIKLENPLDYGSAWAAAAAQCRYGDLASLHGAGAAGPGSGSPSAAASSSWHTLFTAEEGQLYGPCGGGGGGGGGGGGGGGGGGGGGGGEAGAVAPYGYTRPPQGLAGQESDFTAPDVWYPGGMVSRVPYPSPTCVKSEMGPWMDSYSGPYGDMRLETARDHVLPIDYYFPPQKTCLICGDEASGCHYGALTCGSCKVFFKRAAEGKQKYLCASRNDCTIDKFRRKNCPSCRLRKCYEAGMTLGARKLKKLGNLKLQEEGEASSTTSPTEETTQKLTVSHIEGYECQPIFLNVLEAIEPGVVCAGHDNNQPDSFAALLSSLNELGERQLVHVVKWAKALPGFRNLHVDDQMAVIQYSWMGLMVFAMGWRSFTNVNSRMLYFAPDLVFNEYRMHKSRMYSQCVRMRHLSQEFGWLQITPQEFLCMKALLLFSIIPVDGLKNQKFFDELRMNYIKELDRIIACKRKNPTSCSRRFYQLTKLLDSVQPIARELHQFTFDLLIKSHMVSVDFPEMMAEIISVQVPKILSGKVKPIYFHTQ
Target sequence in this assay (Q96SW2 whole entry, looked up): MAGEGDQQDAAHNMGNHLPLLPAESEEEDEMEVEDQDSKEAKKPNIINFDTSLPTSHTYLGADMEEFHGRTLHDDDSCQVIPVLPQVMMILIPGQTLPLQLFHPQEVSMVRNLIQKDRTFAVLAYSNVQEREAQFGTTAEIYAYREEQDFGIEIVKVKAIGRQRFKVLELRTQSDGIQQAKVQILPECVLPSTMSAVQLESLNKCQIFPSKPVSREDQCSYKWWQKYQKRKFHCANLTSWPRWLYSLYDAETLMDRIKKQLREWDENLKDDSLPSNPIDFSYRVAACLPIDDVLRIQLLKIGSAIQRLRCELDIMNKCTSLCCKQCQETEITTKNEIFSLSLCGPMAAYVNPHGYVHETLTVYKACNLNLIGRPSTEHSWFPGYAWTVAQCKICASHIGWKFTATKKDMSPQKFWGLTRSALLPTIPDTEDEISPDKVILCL

[2] = Cmax in Sprague-Dawley rat 2 mg/kg, iv by LC-MS/MS analysis; assay type: ADME, organism-based; settings: in vivo
[3] = Metabolic stability in rat liver microsome assessed as half life measured upto 45 mins by LC/MS analysis; assay type: ADME; settings: liver microsomes
[4] = system: Protein cereblon/Androgen receptor (Homo sapiens), P10275+Q96SW2 [UNDEFINED MUTATION]; experiment: PROTAC activity at AR-V7/CRBN in human 22Rv1 cells assessed as reduction in AR-V7 level at 100 nM incubated for 24 hrs by immunofluorescence analysis; assay type: cell-based; settings: CWR22R
[5] = Tmax in Sprague-Dawley rat 2 mg/kg, iv by LC-MS/MS analysis; assay type: ADME, organism-based; settings: in vivo
[6] = molecular target: T1, Protein cereblon/Androgen receptor; experiment: PROTAC activity at full length Androgen receptor/CRBN in human LNCaP cells assessed as reduction in full length androgen receptor level incubated for 24 hrs by Western blot analysis; assay type: cell-based
hERG = hERG (Homo sapiens, UniProt Q12809); experiment: Inhibition of hERG at 10 uM relative to control; assay type: toxicity
CWR22R [7] = experiment: Induction of apoptosis in human 22Rv1 cells assessed as necrotic cells at 100 nM incubated for 48 hrs by Annexin V/FITC staining based flow cytometry analysis (reference value: 2.31 %); assay type: functional
CWR22R [8] = experiment: Induction of apoptosis in human 22Rv1 cells assessed as early apoptotic cells at 100 nM incubated for 48 hrs by Annexin V/FITC staining based flow cytometry analysis (reference value: 2.08 %); assay type: functional
[9] = system: Protein cereblon/Androgen receptor (Homo sapiens), P10275+Q96SW2 [UNDEFINED MUTATION]; experiment: PROTAC activity at AR-V7/CRBN in human 22Rv1 cells assessed as induction of AR-V7 degradation at 5 uM incubated for 24 hrs by Western blot analysis relative to control; assay type: cell-based; settings: CWR22R
CWR22R [10] = experiment: Induction of apoptosis in human 22Rv1 cells assessed as late apoptotic cells at 500 nM incubated for 48 hrs by Annexin V/FITC staining based flow cytometry analysis (reference value: 1.12 %); assay type: functional
[11] = Toxicity in BALB/c mouse assessed as heart damage at 10 mg/kg, iv administered once daily for 21 days by H and E staining based analysis; assay type: organism-based; settings: in vivo, 504 h, time 21 day
[12] = Toxicity in BALB/c mouse assessed as spleen damage at 10 mg/kg, iv administered once daily for 21 days by H and E staining based analysis; assay type: organism-based; settings: in vivo, 504 h, time 21 day
CWR22R [13] = experiment: Antiproliferative activity against human 22Rv1 cells incubated for 4 days by CCK-8 assay; assay type: functional, cell-based; settings: 22Rv1, 96 h
[14] = Metabolic stability in mouse liver microsome assessed as half life measured upto 45 mins by LC/MS analysis; assay type: ADME; settings: liver microsomes
CWR22R [15] = experiment: Induction of apoptosis in human 22Rv1 cells assessed as viable cells at 100 nM incubated for 48 hrs by Annexin V/FITC staining based flow cytometry analysis (reference value: 94.49%); assay type: functional; settings: read-out: Activity
CWR22R [16] = experiment: Antitumor activity against human 22Rv1 cells xenografted in BALB/c nude mouse assessed as redcution in tumor weight at 10 mg/kg, iv administered once daily for 21 days; assay type: functional, organism-based; settings: time 21.0 day
CWR22R [17] = experiment: Induction of cell cycle arrest in human 22Rv1 cells assessed as accumulation of cells at S phase at 500 nM incubated for 24 hrs by PI staining based flow cytometry analysis (reference value: […]%); assay type: functional
CWR22R [18] = experiment: Antitumor activity against human 22Rv1 cells xenografted in BALB/c nude mouse assessed as reduction in AR-v7 level at 10 mg/kg, iv administered once daily for 21 days; assay type: functional, organism-based; settings: time 21.0 day
[19] = system: Protein cereblon/Androgen receptor (Homo sapiens), P10275+Q96SW2 [UNDEFINED MUTATION]; experiment: PROTAC activity at AR-V7/CRBN in human 22Rv1 cells assessed as induction of AR-V7 degradation at 1 uM incubated for 24 hrs by Western blot analysis relative to control; assay type: cell-based; settings: CWR22R
CWR22R [20] = experiment: Downregulation of UBE2C mRNA level in human 22Rv1 cells incubated for 24 hrs by qRT-PCR analysis; assay type: functional, cell-based; settings: dose 100-500 nM
[21] = molecular target: T1, Protein cereblon/Androgen receptor; experiment: PROTAC activity at full length Androgen receptor/CRBN in human 22Rv1 cells assessed as induction of full length androgen receptor degradation at 100 nM incubated for 12 hrs in presence of MG132 by Western blot analysis; assay type: cell-based
Target sequence in this assay (P10275 whole entry, looked up): as the sequence (P10275 whole entry, looked up) above
Target sequence in this assay (Q96SW2 whole entry, looked up): as the sequence (Q96SW2 whole entry, looked up) above

CWR22R [22] = experiment: Antitumor activity against human 22Rv1 cells xenografted in BALB/c nude mouse assessed as redcution in tumor volume at 10 mg/kg, iv administered once daily for 21 days; assay type: functional, organism-based; settings: time 21.0 day
LNCaP [23] = experiment: PROTAC activity at AR-V7/CRBN in human LNCaP cells assessed as reduction in AR-V7 level incubated for 24 hrs by Western blot analysis; assay type: cell-based; settings: dose <= 5.0 µM
[24] = AUC (0 to infinity) in Sprague-Dawley rat 2 mg/kg, iv by LC-MS/MS analysis; assay type: ADME, organism-based; settings: in vivo
LNCaP [25] = experiment: Antiproliferative activity against human LNCaP cells assessed as cell viability incubated for 4 days by CCK-8 assay; assay type: functional, cell-based; settings: 96 h
[26] = molecular target: T1, Protein cereblon/Androgen receptor; experiment: PROTAC activity at full length Androgen receptor/CRBN in human 22Rv1 cells assessed as induction of full length Androgen receptor degradation at 0.1 uM incubated for 24 hrs in presence of CHX by Western blot analysis; assay type: cell-based
Target sequence in this assay (P10275 whole entry, looked up): as the sequence (P10275 whole entry, looked up) above
Target sequence in this assay (Q96SW2 whole entry, looked up): as the sequence (Q96SW2 whole entry, looked up) above

[27] = Antiproliferative activity against human RWPE-1 cells assessed as cell viability incubated for 4 days by CCK-8 assay; assay type: toxicity, cell-based
[28] = Metabolic stability in human liver microsome assessed as intrinsic clearance measured upto 45 mins by LC/MS analysis; assay type: ADME; settings: liver microsomes, read-out: CLH
[29] = system: Protein cereblon/Androgen receptor (Homo sapiens), P10275+Q96SW2 [UNDEFINED MUTATION]; experiment: PROTAC activity at AR-V7/CRBN in human 22Rv1 cells assessed as induction of AR-V7 degradation at 100 nM incubated for 12 hrs in presence of Thalidomide by Western blot analysis; assay type: cell-based; settings: CWR22R
[30] = molecular target: T1, Protein cereblon/Androgen receptor; experiment: PROTAC activity at full length Androgen receptor/CRBN in human 22Rv1 cells assessed as induction of full length Androgen receptor degradation at 1 uM incubated for 24 hrs by Western blot analysis relative to control; assay type: cell-based
Target sequence in this assay (P10275 whole entry, looked up): as the sequence (P10275 whole entry, looked up) above
Target sequence in this assay (Q96SW2 whole entry, looked up): as the sequence (Q96SW2 whole entry, looked up) above

DU-145 = experiment: Antiproliferative activity against human DU-145 cells assessed as cell viability incubated for 4 days by CCK-8 assay; assay type: functional, cell-based; settings: DU-145, 96 h
CWR22R [31] = experiment: Induction of cell cycle arrest in human 22Rv1 cells assessed as accumulation of cells at G2/M phase at 100 nM incubated for 24 hrs by PI staining based flow cytometry analysis (reference value: 8.61%); assay type: functional
[32] = Half life in Sprague-Dawley rat 2 mg/kg, iv by LC-MS/MS analysis; assay type: ADME, organism-based; settings: in vivo
[33] = molecular target: Voltage-gated inwardly rectifying potassium channel KCNH2 (Homo sapiens, UniProt Q12809); experiment: Inhibition of hERG; assay type: toxicity
CWR22R [34] = experiment: Inhibition of colony formation in human 22Rv1 cells assessed as reduction in colony formation incubated for 14 days; assay type: functional, cell-based; settings: dose 1-100 nM, time 14.0 day
[35] = Clearance in Sprague-Dawley rat 2 mg/kg, iv by LC-MS/MS analysis; assay type: ADME, organism-based; settings: in vivo

Chain of Protein cereblon/Androgen receptor (Homo sapiens), P10275+Q96SW2 [UNDEFINED MUTATION] (P10275 whole entry, looked up, change not shown): as the sequence (P10275 whole entry, looked up) above
Chain of Protein cereblon/Androgen receptor (Homo sapiens), P10275+Q96SW2 [UNDEFINED MUTATION] (Q96SW2 whole entry, looked up, change not shown): as the sequence (Q96SW2 whole entry, looked up) above
Chain of Voltage-gated inwardly rectifying potassium channel KCNH2 (Q12809 whole entry): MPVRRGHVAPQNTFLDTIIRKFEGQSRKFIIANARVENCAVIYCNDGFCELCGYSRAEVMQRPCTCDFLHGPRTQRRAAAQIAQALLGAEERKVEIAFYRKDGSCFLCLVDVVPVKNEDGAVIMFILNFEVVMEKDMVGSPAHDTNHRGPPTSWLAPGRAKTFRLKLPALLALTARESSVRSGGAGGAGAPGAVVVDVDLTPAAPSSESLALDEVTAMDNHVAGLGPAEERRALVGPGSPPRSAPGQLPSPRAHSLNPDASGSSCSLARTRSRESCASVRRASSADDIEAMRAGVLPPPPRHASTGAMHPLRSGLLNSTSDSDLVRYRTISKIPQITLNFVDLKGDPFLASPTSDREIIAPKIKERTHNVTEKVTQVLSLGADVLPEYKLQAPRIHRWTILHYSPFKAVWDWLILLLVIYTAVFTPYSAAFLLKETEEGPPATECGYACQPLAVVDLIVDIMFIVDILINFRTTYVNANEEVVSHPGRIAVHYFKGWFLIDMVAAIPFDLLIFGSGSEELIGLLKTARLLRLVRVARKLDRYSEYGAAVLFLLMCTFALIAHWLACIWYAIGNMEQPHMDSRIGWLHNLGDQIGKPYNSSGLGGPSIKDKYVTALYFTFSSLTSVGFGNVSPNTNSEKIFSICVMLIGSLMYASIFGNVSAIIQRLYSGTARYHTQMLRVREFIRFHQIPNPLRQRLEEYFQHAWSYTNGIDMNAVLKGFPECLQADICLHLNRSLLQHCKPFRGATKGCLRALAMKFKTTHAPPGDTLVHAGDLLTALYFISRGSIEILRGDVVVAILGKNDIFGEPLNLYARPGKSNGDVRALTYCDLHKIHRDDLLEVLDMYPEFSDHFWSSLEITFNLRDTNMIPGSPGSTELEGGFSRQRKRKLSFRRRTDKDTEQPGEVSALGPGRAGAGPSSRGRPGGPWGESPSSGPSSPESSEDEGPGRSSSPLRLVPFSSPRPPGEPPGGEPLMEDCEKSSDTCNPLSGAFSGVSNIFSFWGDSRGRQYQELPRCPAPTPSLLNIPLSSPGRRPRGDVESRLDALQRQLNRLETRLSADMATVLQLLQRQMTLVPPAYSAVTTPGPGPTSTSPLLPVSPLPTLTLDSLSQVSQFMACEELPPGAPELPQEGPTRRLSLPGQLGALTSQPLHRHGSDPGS
Chain of hERG (Q12809 whole entry): as above

CC(C)(c1ccc(OCCNc2cccc3c2C(=O)N(C2CCC(=O)NC2=O)C3=O)cc1)c1ccc(OCc2cccc(N3CCOCC3)n2)cc1 (stereo not drawn)
Activity [1]: 90.2%
Cmax [2]: 6440 ng/mL
half-life [3]: 61.1 min
Activity [4]: Active
Tmax [5]: 4.98 min
DC50 [6]: 180 nM
Activity ([6]; dose <= 5.0 µM): Dose-dependent-effect
inhibition at 10 µM (hERG): < 40%
Activity (CWR22R [7]): 2.13%
Activity (CWR22R [8]): 14.57%
Activity [9]: 89.6%
Activity (CWR22R [10]): 15.59%
Activity [11]: Non-toxic
Activity [12]: Non-toxic
IC50 (CWR22R [13]): 38 nM
half-life [14]: 18.4 min
viability at 0.1 µM (CWR22R [15]): 71%
Activity (CWR22R [16]): Active
Activity (CWR22R [17]): 38.58%
Activity (CWR22R [18]): Active
Activity [19]: 88.7%
Activity (CWR22R [20]): Dose-dependent-effect
Activity [21]: Active
Activity (CWR22R [22]): Active
Activity (LNCaP [23]): Dose-dependent-effect
AUC(0-inf) [24]: 2220 ng·h/mL
IC50 (LNCaP [25]): 176 nM
Activity [26]: Active
IC50 at 4 days [27]: > 80 µM
CLint scaled [28]: 43.1 mL/min/kg
Activity [29]: Active
Activity [30]: 89.2%
IC50 (DU-145): > 80 µM
Activity (CWR22R [31]): 15.45%
half-life [32]: 158 min
IC50 [33]: > 10 µM
inhibition (CWR22R [34]): Dose-dependent-effect
clearance [35]: 15.1 mL/min/kg
